Results as given in patent US11364242B2, “Treatment agents for inhibiting HIV and cancer in HIV infected patients” (UNIVERSITY OF MARYLAND, BALTIMORE, priority 2015, dated 2022).

Assays:
HIV-1 BaL = experiment: Antiretroviral potency with and without INK128 in PBLs infected with HIV BaL; type: cell-based; details: two donors
Experimental: PBLs were separated from buffy coats by density centrifugation over Ficoll-Hypaque (Sigma™), and activated by culture in the presence of 1 μg/mL anti-human CD3 antibody (clone x35, Fisher Scientific™) and 2 μg/mL anti-human CD28 antibody (Clone CD28.6, eBioscience™) for 3 days. Activated cells were infected by incubation with virus at a multiplicity of infection (MOI) of 0.001 for 2 hours. Infected cells were washed three times with PBS and cultured in 5% CO2 at 37° C., in RPMI/10% FBS supplemented with 100 units/mL IL-2 (Roche™) and antiviral drugs, in 96-well flat-bottom plates at a density of […] PBLs per 200 μL. Following 3 d of culture, half of the medium was replaced with fresh medium containing IL-2 and antiviral drugs. On day 7, viral replication was measured by p24 ELISA (Coulter) in culture supernatants and cell viability was measured by MTT assays.
Available ARTs target the HIV lifecycle steps of entry, reverse transcription, integration, and maturation. […] In addition, by targeting virus transcription, INK128 could have favorable interactions with inhibitors of reverse transcription (RTIs), integration (Hs), and protease (PIs). […] We conducted these assays in activated PBLs infected with R5 HIV BaL and treated with various dilutions of Maraviroc (CCR5 antagonist), Efavirenz (RTI), Raltegravir (II), and Indinavir (PI). INK128 was used at low concentrations (<EC50) to better detect changes in ART potency (Table 7).
Prism software. Data are from 2 experiments, each with a different donor.

X4 HIV HXB2 = experiment: PBL infectivity assay, p24 ELISA day 7; type: cell-based, HIV-1; details: Human immunodeficiency virus 1, HXB2; PBLs from three donors
Source text: (§1) PBLs were isolated from buffy coats of HIV seronegative donors (New York Blood Center). The laboratory-adapted strains HIV BaL and HIV HXB2; primary isolates HIV 92BR020, 92UG031, 93BR029, and 93UG082; and multidrug resistant molecular clone NL4329129-2 were obtained from the NIH AIDS Repository. Primary isolate 2044 was from Paul Clapham (Windeyer Institute), and 1633 and 1638 from the Institute of Human Virology (University of Maryland School of Medicine). Maraviroc, efavirenz, raltegravir, and indinavir were from the NIH AIDS Repository. INK128 was purchased from ApexBio. Proliferation of PBLs was measured by the MTT kit (Roche), following the manufacturer's directions. PBL infectivity assays were performed as described herein.
(§2) PBLs were separated from buffy coats by density centrifugation over Ficoll-Hypaque (Sigma™), and activated by culture in the presence of 1 μg/mL anti-human CD3 antibody (clone x35, Fisher Scientific™) and 2 μg/mL anti-human CD28 antibody (Clone CD28.6, eBioscience™) for 3 days. Activated cells were infected by incubation with virus at a multiplicity of infection (MOI) of 0.001 for 2 hours. […] On day 7, viral replication was measured by p24 ELISA (Coulter) in culture supernatants and cell viability was measured by MTT assays.
(§3) EC50 values were determined by variable slope nonlinear regression analysis. […]

R5 HIV BaL = experiment: PBL infectivity assay, p24 ELISA day 7; type: cell-based, HIV-1; details: Human immunodeficiency virus 1, BAL; PBLs from three donors
Source text: as §1, §2, §3

Q: For `CC(C)n1nc(-c2ccc3oc(N)nc3c2)c2c(N)ncnc21` [INK128, 5-(4-amino-1-propan-2-ylpyrazolo[3,4-d]pyrimidin-3-yl)-1,3-benzoxazol-2-amine], which “effect on the potency of the other tested ARTs (Efavirenz, Raltegravir, Indinavir)” value (HIV-1 BaL) is on record?
A: Its value is “no negative effect”.

Q: What about the “enhancement of the antiviral potency of Maraviroc” value (HIV-1 BaL) of the same compound?
A: The value was “five- to six fold”.

Q: And the EC50 (X4 HIV HXB2)?
A: The EC50 was 38 nM.

Q: And the EC50 (R5 HIV BaL)?
A: The EC50 was 10.5 nM.
